Series [1] relates to T. cruzi amastigotes. In words: Activity against intracellular T. cruzi amastigotes. It is filed as cell-based, Trypanosoma cruzi. Particulars: for Selectivity index: SI = IC50 cytotoxicity/IC50 against T. cruzi; for IC50: read-out: IC50 T. cruzi amastigotes; for activity against T. cruzi (in words): intracellular amastigotes. An excerpt:
The bioactivity of isolated compounds against intracellular T. cruzi amastigotes grown in rat L6 […] is presented in Table 1. […] Rotenone and deguelin are known to be strong mitochondrial complex I (also known as NADH:ubiquinone oxidoreductase) inhibitors,[43–45] while different activities between closely related rotenoids (rotenone, 5′-α-epirotenone, and 5′-β-epirotenone) has already been shown. […] The variation in activity observed on our rapidly generated series of structural analogs points in the same direction. As shown in Fig. 3 and Table 1, the cyclic and bent form of the rotenoid at the B/C ring junction is essential for activity, since compounds 40 and 41 were not active.
The pure compounds activity was assessed against T. cruzi amastigotes as described in ref. [27].

The nature of series [2]: Cytotoxicity assay: L-6 cells. It is filed as cell-based. The following applies: rat skeletal myoblast (L6 cells); means of two independent assays. As to the method:
(§1) The pure compounds cytotoxicity was assessed against L6 cells as described in ref. [27].

Series [3] deals with T. cruzi amastigotes. Particulars: commercial standards; cited from earlier work.
Series [4] relates to Haemonchus contortus. Particulars: cited from earlier work.
In series [5] the test system is L6 cells (rat skeletal myoblast). Particulars: commercial standards; cited from earlier work.
Series [6] has the same test system. The series is described as follows: Cytotoxicity assay: L-6 cells. Format: cell-based. Particulars: means of two independent assays. As to the method: as §1
The mark [7] stands for this setting: Trypanosoma cruzi, intracellular amastigotes grown in rat L6 cells, means of two independent assays.

Like-named read-outs stand apart in the source and are kept apart here.

In series [1], `C=C(C)[C@H]1Cc2c(ccc3c2O[C@@H]2COc4cc(OC)c(OC)cc4[C@@H]2C3=O)O1` [Compound 37, rotenone] returned a Selectivity index of 51.7. Moreover, the IC50 (in general, the concentration needed to halve the response being measured) was 0.01 µM in series [1] (Trypanosoma cruzi, L6, in Rattus norvegicus) and 0.48 µM in series [2]. In addition, in series [3], the “IC50 against the amastigote form of the parasite” value was “nanomolar”. Also, in series [4], the nematocidal activity result is “potent nematocidal activity”. Moreover, the “toxicity to the host cell” value in series [5] was “without toxicity”.
For the compound `COc1cc2c(cc1OC)[C@@H]1C(=O)c3ccc4c(c3O[C@@H]1CO2)C=CC(C)(C)O4` [Compound 39, deguelin], the Selectivity index in series [1] worked out at 1148.5. In addition, the half-inhibitory concentration (IC50) amounted to 0.02 µM in series [1] (setting [7]) and 19.4 µM in series [2]. The “IC50 against the amastigote form of the parasite” value in series [3] is “nanomolar”. For the same compound, the nematocidal activity result in series [4] is “potent nematocidal activity”. Also, the “toxicity to the host cell” value in series [5] was “without toxicity”.
In the case of `CC1(C)C=Cc2c(ccc3c(=O)c(-c4cc(O)c5c(c4)OCO5)coc23)O1` [Compound 40, norisojamaicin], in series [1], the Selectivity index is 5.7 and the “activity against T. cruzi (in words)” value is “not active”. Further, the IC50 in series [1] (setting [7]) is 21.8 µM. Besides, the concentration for half-maximal inhibition (IC50) in series [2] turned out to be 123 µM.
For `COc1ccc(-c2coc3c4c(cc(O)c3c2=O)OC(C)(C)C=C4)cc1O` [Compound 41, 3′-hydroxy-4′-O-metyhlerrone], in that order: 6.9, “not active”, 8.04 µM and 55.7 µM.
In the case of medicarpin [Compound 15], the concentration for half-maximal inhibition (IC50) in series [1] (intracellular amastigotes grown in rat L6 cells, means of two independent assays) came to 202 µM; in series [6], 226 µM.

These data come from publication PMC12062876, “Efficient constitution of a library of rotenoid analogs active against Trypanosoma cruzi from a digitalized plant extract collection” (RSC Advances, 2025).
